Laboratory results taken from patent publication US5668144A, “1-azabicyclopheptane derivatives” (American Home Products Corporation, priority 1996, dated 1997).

Experiments:
muscarinic receptors = conditions: disclosed in earlier patents; cited from earlier work
[1] = test system: scopolamine disrupted rat performance; assay: Eight arm radial maze, reversal of scopolamine disrupted rat performance; format: in vivo, Sprague-Dawley male rats; conditions: ip, test compound i.p., scopolamine HBr 0.3 mg/kg s.c., read-out: minimum effective dose (MED), reversal of scopolamine disrupted rat performance
Experimental: The compound of Example 3 was also tested in the eight arm radial maze test procedure in which Sprague-Dawley male rats at 85% of their free feeding weight are trained to obtain two food pellets from food cups placed at the ends of four of the eight arms radiating from a circular central area of the maze, in a five minute period. After training to a level of error (return to a previously entered arm is error) equal to or less than 2, the rats performance is disrupted with scopolamine HBr (0.3 mg/kg, s.c.) and test compound dosage (i.p.). The number of errors are then determined and compared with control receiving scopolamine alone.

[2] = target: T1, M1 acetylcholine receptors (Homo sapiens, UniProt P11229); assay: PI hydrolysis stimulation in CHO cells expressing M1 acetylcholine receptors (muscarinic m1 agonism); format: cell-based; conditions: exo versus endo azacycloheptane analog
T1 sequence (P11229 1-460): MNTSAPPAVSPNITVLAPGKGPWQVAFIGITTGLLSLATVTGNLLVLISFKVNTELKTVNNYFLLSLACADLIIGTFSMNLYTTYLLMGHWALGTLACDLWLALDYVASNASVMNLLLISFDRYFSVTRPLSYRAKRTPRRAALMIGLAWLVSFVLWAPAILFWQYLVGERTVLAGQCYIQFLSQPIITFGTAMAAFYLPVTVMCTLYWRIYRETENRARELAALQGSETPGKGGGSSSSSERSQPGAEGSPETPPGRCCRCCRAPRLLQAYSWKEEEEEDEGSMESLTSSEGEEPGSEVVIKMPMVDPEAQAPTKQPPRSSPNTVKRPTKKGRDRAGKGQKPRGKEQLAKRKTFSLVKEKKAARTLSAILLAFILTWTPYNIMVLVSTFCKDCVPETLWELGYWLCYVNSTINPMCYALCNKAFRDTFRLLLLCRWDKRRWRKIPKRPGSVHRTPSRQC

[3] = test system: patients with mild to moderate Alzheimer's Disease; conditions: cited from earlier work; for memory in patients (in words): mild to moderate Alzheimer's Disease
[4] = in vivo; cited from earlier work
[5] = quaternary ammonium group; cited from earlier work
[6] = test system: scopolamine treated animals; assay: Reversal of scopolamine hyperactivity, mouse swim tank test; format: in vivo, Male CFW mice; conditions: ip, scopolamine HBr 0.3 mg/kg, read-out: minimum effective dose (MED), reversal of hyperactivity of scopolamine treated animals
Experimental: The compound of Example 3, representative of the other compounds of this invention, was also tested in accordance with the procedure of Symons et al, Soc. Neuroscience Abstracts 12:2, 897 (1986) in which Male CFW mice, 25 to 35 grams in weight are given the test compound in suitable vehicle plus 0.3 mg/kg scopolamine. HBr in suitable vehicle, i.p.(3 groups of 12 animals each) or vehicle alone (1 group of 12 animals ) or vehicle plus scopolamine. HBr (1 group of 12 animals). The mice are placed in a swim tank, individually, containing 10 cm H2 O for a period of 5 minutes and the distance each animal swims is recorded.

m1 receptors = conditions: cited from earlier work

CNC(=O)OC1CN2CCCC1C2 (stereo not drawn) [exo-1-azabicyclo[3.2.1]oct-6-yl-N-methylcarbamate]
muscarinic activity (in words) (muscarinic receptors): muscarinic activity

CNC(=O)OC1CC2CCCN(C2)C1 (stereo not drawn) [exo-1-azabicyclo[3.3.1]non-3-yl-N-methylcarbamate]
muscarinic activity (in words) (muscarinic receptors): muscarinic activity

CNC(=O)O[C@@H]1CN2CC[C@@H]1C2 (single isomer, unassigned) [Example 2, (+)-(exo)-Methylcarbamic acid 1-aza-bicyclo[2.2.1]hept-3-yl ester]
minimal effective dose [1]: 1 mg/kg

CNC(=O)O[C@@H]1CN2CC[C@H]1C2 (relative stereo) [endo azacycloheptane analog]
muscarinic agonism (in words) [2]: not

COC(=O)C1=CCCN(C)C1 [Arecoline]
memory in patients (in words) [3]: memory improvement
half-life (in words) [4]: short

C[N+](C)(C)CCOC(N)=O [carbachol]
ability to enter the CNS (in words) [5]: not able to enter the CNS

CNC(=O)O[C@@H]1CN2CC[C@@H]1C2 (relative stereo) [Example 1, (exo)-Methylcarbamic acid 1-aza-bicyclo[2.2.1]hept-3-yl ester]
muscarinic agonism (in words) [2]: enhanced muscarinic agonism

CNC(=O)O[C@@H]1CN2CC[C@@H]1C2 (single isomer, unassigned) [Example 3, (-)-(exo)-Methylcarbamic acid 1-aza-bicyclo[2.2.1]hept-3-yl ester]
minimal effective dose [6]: 30 mg/kg

CN(C)C(=O)OC1CC2CCCN(C2)C1 (stereo not drawn) [exo-1-azabicyclo[3.3.1]non-3-yl-N,N-dimethylcarbamate]
muscarinic activity (in words) (muscarinic receptors): muscarinic activity

C[C@@H]1O[C@H](C[N+](C)(C)C)C[C@H]1O [muscarine]
activation of m1 receptors (in words) (m1 receptors): able to fully activate m1 receptors
ability to enter the CNS (in words) [5]: not able to enter the CNS

Nc1c2c(nc3ccccc13)CCCC2 [tacrine]
adverse side effects (in words) ([3]; especially at the higher doses where it is most effective): adverse side effects especially at the higher doses
memory in patients (in words) [3]: improvement in memory
